# Measured values: patent US20190053492A1, “SUBSTITUTED PYRIDINE COMPOUNDS AS PESTICIDES” (Bayer CropScience Aktiengesellschaft, priority 2016, published 2019)
# Read-outs that look alike come from different tables or passages of the source.
# Columns and labels:
# Phaedon cochleariae = Phaedon cochleariae spray test; format: in vivo; conditions: after 7 days, Chinese cabbage leaf discs
# Outline: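 Chinese cabbage leaf discs sprayed with compound in acetone/DMF and emulsifier-containing water, then infested with mustard beetle larvae once dry. Efficacy in % scored after 7 days (100% = all larvae killed, 0% = none).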
# [1] = log P by HPLC on reversed-phase column (C 18), EEC Directive 79/831 Annex V.A8; format: physicochemical; conditions: 55° C.; for LOGP_HCOOH: log P (HCOOH); for chromatographic logP: reversed-phase HPLC column (C 18)
# Protocol: Temperature: 55° C. […] Called log P (HCOOH) in the table. […] Called log P (neutral) in the table.
# Lucilia cuprina = Lucilia cuprina test; format: in vivo; conditions: application rate 100 ppm, after 2 days, L1 larvae
# Outline: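 Active ingredient dissolved in DMSO and diluted with water to the test concentration. About 20 first-instar sheep blowfly larvae placed on minced horsemeat containing the formulation; percentage of larvae killed scored after 2 days.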
# Musca domestica = Musca domestica test; format: in vivo; conditions: after 2 days, adult houseflies
# Protocol: Musca domestica Test Solvent: dimethyl sulphoxide To produce a suitable active ingredient formulation, 10 mg of active ingredient are mixed with 0.5 ml of dimethyl sulphoxide, and the concentrate is diluted with water to the desired concentration. Vessels containing a sponge treated with sugar solution and the active ingredient formulation of the desired concentration are populated with 10 adult houseflies (Musca domestica). After 2 days, the kill in % is determined. 100% means that all of the flies have been killed; 0% means that none of the flies have been killed.
# Spodoptera frugiperda = Spodoptera frugiperda spray test; format: in vivo; conditions: after 7 days, maize leaf discs
# Outline: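 Maize leaf discs were sprayed with compound formulated in acetone/DMF and emulsifier-containing water, dried, then infested with Spodoptera frugiperda caterpillars. Percent kill was scored after 7 days, from 100% (all dead) to 0% (none dead).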
# Ctenocephalides felis = Ctenocephalides felis oral test; format: in vivo; conditions: application rate 100 ppm in citrated cattle blood, after 2 days, adult cat fleas
# Outline: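 About 20 unfed adult cat fleas fed through a parafilm membrane on citrated cattle blood dosed with compound from a DMSO formulation. Percent kill was scored after 2 days.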
# Tetranychus urticae = Tetranychus urticae spray test, OP-resistant; format: in vivo; conditions: after 6 days, bean leaf discs
# Protocol: Tetranychus urticae—Spray Test, OP-Resistant
# Solvent: 78.0 parts by weight of acetone • • 1.5 parts by weight of dimethylformamide
# Emulsifier: alkylaryl polyglycol ether
# To produce a suitable active ingredient formulation, 1 part by weight of active ingredient is dissolved with the specified parts by weight of solvent and made up with water containing an emulsifier concentration of 1000 ppm until the desired concentration is attained. To produce further test concentrations, the formulation is diluted with emulsifier-containing water.
# Discs of bean leaves (Phaseolus vulgaris) infested with all stages of the greenhouse red spider mite (Tetranychus urticae) are sprayed with an active ingredient formulation of the desired concentration.
# After 6 days, the efficacy in % is determined. 100% means that all the spider mites have been killed; 0% means that no spider mites have been killed.
# [2] = acidic range at pH 2.7, 0.1% aqueous formic acid and acetonitrile, HPLC on reversed-phase column (C 18)
# [3] = log P, neutral range, HPLC on reversed-phase column (C 18)
# [4] = acidic range pH 2.7, 0.1% aqueous formic acid and acetonitrile, reversed-phase column (C 18)
Compound,"LOGP_HCOOH [1, 2]","LOGP_NEUTRAL [1, 3]","LOGP_HCOOH [1, 4]",efficacy (beetle larvae killed) (Phaedon cochleariae; application rate 100 g/ha) [%],efficacy (beetle larvae killed) (Phaedon cochleariae; application rate 500 g/ha) [%],efficacy (kill in %) (Lucilia cuprina) [%],efficacy (kill in %) (Musca domestica; application rate 100 ppm) [%],efficacy (caterpillars killed) (Spodoptera frugiperda; application rate 100 g/ha) [%],efficacy (caterpillars killed) (Spodoptera frugiperda; application rate 500 g/ha) [%],efficacy (kill in %) (Ctenocephalides felis) [%],also measured
CC(C#N)NC(=O)c1cc(-c2ccc(OC(F)(F)F)cc2)cc(NC(=O)C2CC2)n1 (stereo not shown) [Example I-115],3.46,3.40,–,100,100,90,80,100,100,100,–
CC(C)C(=O)Nc1cc(-c2ccc(C(F)(F)F)cc2)cc(C(=O)NCc2ccc(C#N)cc2F)n1 [Example I-078],–,3.96,3.99,–,100,100,100,100,100,100,–
N#Cc1ccc(CNC(=O)c2cc(-c3ccc(OC(F)(F)F)cc3)cc(NC(=O)C3CC3)n2)c(F)c1 [Example I-079],–,3.91,4.03,–,100,100,90,100,100,100,–
"N#Cc1ccc(CNC(=O)c2cc(-c3ccc(C(F)(F)F)s3)cc(NC(=O)C3CC3)n2)cc1 [Example I-160, N-(4-Cyanobenzyl)-6-[(cyclopropylcarbonyl)amino]-4-[5-(trifluoromethyl)-2-thienyl]pyridine-2-carboxamide]",–,–,–,–,–,100,80,–,–,–,"pest or weed control at 100 g/ha (Phaedon cochleariae; Phaedon cochleariae, foliar, 168 h, application rate 100 g/ha, read-out: efficacy (beetle larvae killed)): 100%; pest or weed control at 500 g/ha (Phaedon cochleariae; Phaedon cochleariae, foliar, 168 h, application rate 500 g/ha, read-out: efficacy (beetle larvae killed)): 100%; chromatographic logP ([1]; pH 2.7, LC-MS acidic range, pH 2.7, 0.1% formic acid/acetonitrile, read-out: log P (acidic) / log P (HCOOH)): 3.73; chromatographic logP ([1]; pH 2.7, log P (HCOOH), acidic range at pH 2.7, 0.1% aqueous formic acid and acetonitrile, HPLC on reversed-phase column (C 18), read-out: LOGP_HCOOH): 3.68; pest or weed control at 100 g/ha (Spodoptera frugiperda; Spodoptera frugiperda, foliar, 168 h, application rate 100 g/ha, read-out: efficacy (caterpillars killed)): 100%; pest or weed control at 500 g/ha (Spodoptera frugiperda; Spodoptera frugiperda, foliar, 168 h, application rate 500 g/ha, read-out: efficacy (caterpillars killed)): 100%; pest or weed control at 100 ppm (Ctenocephalides felis; Ctenocephalides felis, po, 48 h, read-out: efficacy (kill in %)): 100%"
N#Cc1ccc(CNC(=O)c2cc(-c3ccc(C(F)(F)F)cc3)cc(NC(=O)C3CC3)n2)cc1F [Example I-026],–,3.79,3.87,100,100,100,100,100,100,100,–
Cn1ccc(-c2ccc(CNC(=O)c3cc(-c4ccc(OC(F)(F)F)cc4)cc(NC(=O)C4CC4)n3)cc2)n1 [Example I-100],–,3.75,3.86,–,–,–,–,–,83,–,efficacy (spider mites killed) (Tetranychus urticae; application rate 100 g/ha): 90%
COC(=O)c1ccc(CNC(=O)c2cc(-c3ccc(OC(F)(F)F)cc3)cc(NC(=O)C3CC3)n2)cc1 [Example I-101],–,3.97,4.08,–,83,–,–,–,–,–,efficacy (spider mites killed) (Tetranychus urticae; application rate 500 g/ha): 90%
O=C(NC1CC1)c1cc(-c2ccc(OC(F)(F)F)cc2)cc(NC(=O)C2CC2)n1 [Example I-089],–,3.39,3.51,100,100,95,100,100,100,100,–
N#Cc1ccc(CNC(=O)c2cc(-c3ccc4c(c3)OC(F)(F)O4)cc(NC(=O)C3CC3)n2)cc1 [Example I-154],3.76,3.61,–,100,100,100,100,83,100,100,–

# More lines, main results first:
"LOGP_HCOOH [1, 2]","LOGP_NEUTRAL [1, 3]","LOGP_HCOOH [1, 4]",Compound,efficacy (beetle larvae killed) (Phaedon cochleariae; application rate 100 g/ha) [%],efficacy (beetle larvae killed) (Phaedon cochleariae; application rate 500 g/ha) [%],efficacy (kill in %) (Lucilia cuprina) [%],efficacy (kill in %) (Musca domestica; application rate 100 ppm) [%],efficacy (caterpillars killed) (Spodoptera frugiperda; application rate 100 g/ha) [%],efficacy (caterpillars killed) (Spodoptera frugiperda; application rate 500 g/ha) [%],efficacy (kill in %) (Ctenocephalides felis) [%],also measured
–,–,3.90,N#Cc1ccc(CNC(=O)c2cc(-c3ccc(OC(F)(F)F)cc3)cc(NC(=O)C3CC3)n2)s1 [Example I-255],–,–,–,–,83,100,–,"efficacy (spider mites killed) (Tetranychus urticae; application rate 500 g/ha): 90%; LOGP_NEUTRAL ([1]; log P (neutral), HPLC reversed-phase column (C 18)): 3.88"
4.29,4.14,–,N#CC1CCC(CNC(=O)c2cc(-c3ccc(C(F)(F)C(F)(F)F)c(F)c3)cc(NC(=O)C3CC3)n2)CC1 (stereo not shown) [Example I-185],100,100,–,–,100,100,–,efficacy (spider mites killed) (Tetranychus urticae; application rate 500 g/ha): 90%
4.23,–,–,O=C(NC1(C2CC2)CC1)c1cc(-c2ccc(OC(F)(F)F)cc2)cc(NC(=O)C2CC2)n1 [Example I-184],100,100,100,–,–,100,100,efficacy (kill in %) (Musca domestica; application rate 20 ppm): 100%
4.22,4.08,–,N#CC1CCC(CNC(=O)c2cc(-c3ccc(C(F)(F)C(F)(F)F)cc3)cc(NC(=O)C3CC3)n2)CC1 (stereo not shown) [Example I-195],100,100,100,100,100,100,100,efficacy (kill in %) (Musca domestica; application rate 20 ppm): 100%
3.81,3.74,–,N#Cc1ccc(CNC(=O)c2cc(-c3ccc(OC(F)(F)C(F)Cl)cc3)cc(NC(=O)C3CC3)n2)cc1 (stereo not shown) [Example I-194],–,83,–,–,–,–,–,efficacy (spider mites killed) (Tetranychus urticae; application rate 100 g/ha): 90%; efficacy (spider mites killed) (Tetranychus urticae; application rate 500 g/ha): 90%
